Results: the supplement of paper PMC11061612

Tests used:
Assay in all cases: Bliss excess, mean over the matrix (fraction); higher = more synergy
[1] = test system: AM-38 (Glioblastoma)
How it was run: (§1)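 Cell lines in DMEM/F12 or RPMI with 10% FBS were plated in 1536-well plates, held 24 hours at 37°C, 5% CO2, then given two-drug dose matrices for 72 hours (DMSO typically 0.2%). Viability was read by CellTiter-Glo 2.0 luminescence and scaled as inhibition from 0 (vehicle wells) to 1 (blank wells). Combination Emax is the second-highest inhibition in the matrix; Bliss excess is observed combination effect minus expected EA + EB − EA·EB, EA and EB being single-agent effects.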

[2] = test system: BxPC-3 (Pancreatic Carcinoma)
How it was run: as §1

[3] = test system: CL-11 (Colorectal Carcinoma)
How it was run: as §1

[4] = test system: CPC-N (Small Cell Lung Carcinoma)
How it was run: as §1

[5] = test system: DBTRG-05MG (Glioblastoma)
How it was run: as §1

[6] = test system: IA-LM (Non-Small Cell Lung Carcinoma)
How it was run: as §1

[7] = test system: MONO-MAC-6 (Acute Myeloid Leukemia)
How it was run: as §1

[8] = test system: NCI-H1341 (Small Cell Lung Carcinoma)
How it was run: as §1

[9] = test system: NCI-H3118 (Head and Neck Carcinoma)
How it was run: as §1

[10] = test system: NCI-H596 (Other Solid Carcinomas)
How it was run: as §1

[11] = test system: P32-ISH (Burkitt's Lymphoma)
How it was run: as §1

[12] = test system: PA-TU-8988T (Pancreatic Carcinoma)
How it was run: as §1

[13] = test system: PL4 (Pancreatic Carcinoma)
How it was run: as §1

[14] = test system: Raji (Burkitt's Lymphoma)
How it was run: as §1

[15] = test system: SCC-4 (Oral Cavity Carcinoma)
How it was run: as §1

[16] = test system: SK-N-SH (Neuroblastoma)
How it was run: as §1

[17] = test system: SNU-423 (Hepatocellular Carcinoma)
How it was run: as §1

[18] = test system: SNU-C2B (Colorectal Carcinoma)
How it was run: as §1

[19] = test system: TUR (Acute Myeloid Leukemia)
How it was run: as §1

[20] = test system: WM35 (Melanoma)
How it was run: as §1

Compound | Bliss excess [1] | Bliss excess [2] | Bliss excess [3] | Bliss excess [4] | Bliss excess [5] | Bliss excess [6] | Bliss excess [7] | Bliss excess [8] | Bliss excess [9] | Bliss excess [10] | Bliss excess [11] | Bliss excess [12] | Bliss excess [13] | Bliss excess [14] | Bliss excess [15] | Bliss excess [16] | Bliss excess [17] | Bliss excess [18] | Bliss excess [19] | Bliss excess [20]
CC(=O)Nc1cccc(-n2c(=O)n(C3CC3)c(=O)c3c(Nc4ccc(I)cc4F)n(C)c(=O)c(C)c32)c1 [Trametinib] + Cc1nc(-c2cn3c(n2)-c2ccc(-c4cnn(C(C)(C)C(N)=O)c4)cc2OCC3)n(C(C)C)n1 [Taselisib] (first compound max 1 µM, 7x7, partner max 10 µM) | 0.117 | 0.354 | 0.139 | 0.0985 | 0.0957 | 0.0972 | 0.244 | 0.183 | 0.13 | 0.0725 | 0.0479 | 0.173 | 0.0796 | 0.0075 | 0.147 | 0.077 | 0.0727 | 0.114 | 0.157 | 0.124
CC1(C)CCC(CN2CCN(c3ccc(C(=O)NS(=O)(=O)c4ccc(NCC5CCOCC5)c([N+](=O)[O-])c4)c(Oc4cnc5[nH]ccc5c4)c3)CC2)=C(c2ccc(Cl)cc2)C1 [Venetoclax] + C1CN(CCC1(C(=O)N[C@@H](CCO)C2=CC=C(C=C2)Cl)N)C3=NC=NC4=C3C=CN4 [Capivasertib] (first compound max 1 µM, 7x7, partner max 3 µM) | -0.0742 | -0.0171 | -0.0205 | -0.0365 | -0.0522 | -0.057 | -0.0214 | 0.0321 | -0.0641 | -0.0211 | -0.0094 | 0.0237 | -0.0363 | -0.0008 | -0.0792 | -0.0998 | -0.0386 | -0.0833 | -0.0176 | -0.0456
CC1(C)CCC(CN2CCN(c3ccc(C(=O)NS(=O)(=O)c4ccc(NCC5CCOCC5)c([N+](=O)[O-])c4)c(Oc4cnc5[nH]ccc5c4)c3)CC2)=C(c2ccc(Cl)cc2)C1 [Venetoclax] + C=CCn1c(=O)c2cnc(Nc3ccc(N4CCN(C)CC4)cc3)nc2n1-c1cccc(C(C)(C)O)n1 [AZD1775] (first compound max 1 µM, partner max 1 µM) | -0.0561 | 0.092 | -0.0425 | 0.0439 | -0.0476 | -0.0386 | 0.0336 | 0.101 | -0.0416 | -0.0783 | -0.0118 | -0.0286 | -0.0751 | -0.023 | 0.0032 | 0.0526 | -0.0472 | -0.009 | -0.0071 | -0.0447
CC1(C)CCC(CN2CCN(c3ccc(C(=O)NS(=O)(=O)c4ccc(NCC5CCOCC5)c([N+](=O)[O-])c4)c(Oc4cnc5[nH]ccc5c4)c3)CC2)=C(c2ccc(Cl)cc2)C1 [Venetoclax] + CCN(CCO)CCCOc1ccc2c(Nc3cc(CC(=O)Nc4cccc(F)c4)[nH]n3)ncnc2c1 [AZD2811] (first compound max 1 µM, 7x7, partner max 1 µM) | -0.0506 | 0.0003 | -0.0137 | -0.048 | -0.0171 | -0.053 | 0.101 | 0.0606 | -0.0097 | -0.0394 | -0.0282 | -0.0549 | -0.0704 | -0.016 | -0.0404 | 0.0471 | -0.0381 | 0.0098 | 0.0132 | -0.0397
CC1(C)CCC(CN2CCN(c3ccc(C(=O)NS(=O)(=O)c4ccc(NCC5CCOCC5)c([N+](=O)[O-])c4)c(Oc4cnc5[nH]ccc5c4)c3)CC2)=C(c2ccc(Cl)cc2)C1 [Venetoclax] + CN(C)CCCOc1ccc(-c2ccc3ncc4c(c3c2)n(C2CCOCC2)c(=O)n4C)cn1 [AZD0156] (first compound max 1 µM, 7x7, partner max 1 µM) | -0.0183 | -0.0304 | -0.0419 | -0.0013 | -0.008 | -0.0238 | 0.0233 | 0.007 | 0.005 | -0.0377 | -0.0083 | -0.0102 | -0.0397 | 0.0279 | -0.024 | -0.0542 | -0.0429 | -0.0135 | -0.0102 | -0.0197
CC1(C)CCC(CN2CCN(c3ccc(C(=O)NS(=O)(=O)c4ccc(NCC5CCOCC5)c([N+](=O)[O-])c4)c(Oc4cnc5[nH]ccc5c4)c3)CC2)=C(c2ccc(Cl)cc2)C1 [Venetoclax] + COc1cc(Nc2ncc3c(n2)-c2ccc(Cl)cc2C(c2c(F)cccc2OC)=NC3)ccc1C(=O)O [Alisertib] (first compound max 1 µM, 7x7, partner max 10 µM) | 0.0101 | -0.0291 | -0.0062 | -0.047 | -0.0248 | -0.0469 | 0.164 | 0.125 | -0.0188 | -0.0501 | -0.0078 | 0.0042 | -0.0531 | -0.006 | 0.0421 | 0.0326 | 0.0176 | 0.0168 | 0.077 | -0.0338
CC1(C)CCC(CN2CCN(c3ccc(C(=O)NS(=O)(=O)c4ccc(NCC5CCOCC5)c([N+](=O)[O-])c4)c(Oc4cnc5[nH]ccc5c4)c3)CC2)=C(c2ccc(Cl)cc2)C1 [Venetoclax] + C[C@@H]1COCCN1C2=NC(=NC(=C2)C3(CC3)[S@](=N)(=O)C)C4=C5C=CNC5=NC=C4 [AZD6738] (first compound max 1 µM, 7x7, partner max 10 µM) | 0.0223 | 0.0101 | -0.0395 | -0.0526 | 0.0023 | -0.01 | -0.0322 | 0.0142 | -0.0643 | -0.0571 | 0.0365 | 0.0107 | -0.0918 | 0.0091 | -0.134 | -0.0671 | -0.0801 | -0.0102 | -0.0024 | 0.023
CC1(C)CCC(CN2CCN(c3ccc(C(=O)NS(=O)(=O)c4ccc(NCC5CCOCC5)c([N+](=O)[O-])c4)c(Oc4cnc5[nH]ccc5c4)c3)CC2)=C(c2ccc(Cl)cc2)C1 [Venetoclax] + C[C@@H](Nc1cc(F)cc(F)c1)c1cc(C(=O)N(C)C)cc2c(=O)cc(N3CCOCC3)oc12 [AZD8186] (first compound max 1 µM, 7x7, partner max 3 µM) | -0.0259 | -0.0115 | -0.0397 | 0.0256 | -0.0251 | -0.0416 | 0.0531 | 0.0918 | -0.0439 | -0.0378 | 0.0385 | 0.0383 | -0.049 | 0.0114 | -0.119 | 0.0249 | 0.0364 | -0.0408 | 0.0157 | -0.0332
CC1(C)CCC(CN2CCN(c3ccc(C(=O)NS(=O)(=O)c4ccc(NCC5CCOCC5)c([N+](=O)[O-])c4)c(Oc4cnc5[nH]ccc5c4)c3)CC2)=C(c2ccc(Cl)cc2)C1 [Venetoclax] + Cc1cc2ncnn2cc1Nc1ncc2c(n1)n(C1CCOCC1)c(=O)n2C [AZD7648] (first compound max 1 µM, 7x7, partner max 10 µM) | -0.0098 | -0.0374 | -0.0255 | -0.0219 | -0.0224 | 0.0086 | -0.025 | 0.0752 | -0.0369 | -0.0119 | -0.0154 | -0.0251 | -0.0297 | 0.0289 | -0.0674 | -0.0125 | -0.111 | 0.0034 | -0.0016 | -0.0209
CC1(C)CCC(CN2CCN(c3ccc(C(=O)NS(=O)(=O)c4ccc(NCC5CCOCC5)c([N+](=O)[O-])c4)c(Oc4cnc5[nH]ccc5c4)c3)CC2)=C(c2ccc(Cl)cc2)C1 [Venetoclax] + Cn1cnc2c(F)c(Nc3ccc(Br)cc3Cl)c(C(=O)NOCCO)cc21 [Selumetinib] (first compound max 1 µM, 7x7, partner max 3 µM) | -0.108 | 0.0009 | -0.0494 | -0.0454 | 0.0064 | -0.0248 | -0.0192 | 0.0847 | -0.0276 | -0.0764 | 0.0152 | -0.021 | -0.0236 | -0.003 | -0.0931 | 0.083 | -0.11 | -0.0107 | -0.024 | 0.0543
